Where two headings read alike, the source gives them in different places.
Biological target: T1, human TRPM8 receptor (Homo sapiens, UniProt Q7Z2W7)
T1 construct: expressed in transfected cells; host or cells: HEK293, stably transfected, tetracycline-inducible expression
Experiment: Assay on TRPM8 modulators: Ca2+-sensitive dye (Fluo-4) fluorescence in HEK293-TRPM8 test cells
Format: cell-based
Parameters: relative TRPM8 activation: concentration or dose not given beside the values
Conditions: for EC50: HEK293-TRPM8 cells; for relative TRPM8 activation: HEK293 cells recombinantly expressing human TRPM8
Source text: The starting point for cloning the human TRPM8 receptor is an LnCaP cDNA bank. This is commercially available (e.g. BioChain, Hayward, USA) or can be produced from the andro gene-sensitive human prostate adenocarcinoma cell line LnCaP (e.g. ATCC, CRL1740 or ECACC, 891 1021 1) using standard kits.
The coding TRPM8 sequence (see e.g. http://www. ncbi.nlm.nih.gov/entrez/viewer.fcgi?db=nuccore&id=109689694) can be PCR-amplified and cloned using standard methods. The human TRPM8 gene isolated in this way was used to produce the plasmid plnd_M8. Alternatively, the TRPM8 gene can also be produced synthetically.
A stably transfected HEK293 cell line was produced as a test cell system using human TRPM8 DNA. Preference was given to HEK293, which offers the possibility of inducing TRPM8 expression using tetracycline via the plasmid introduced.
A test similar to the test already described in the literature by Behrendt H. J. et al, Br. J. Pharmacol. 141, 2004, 737-745, is performed. The agonization or antagonization of the receptor can be quantified using a Ca^2+-sensitive dye (e.g. FURA, Fluo-4 etc.). Agonists alone cause an increase in the Ca^2+ signal; antagonists cause a reduction in the Ca^2+ signal in the presence of e.g. menthol (detected in each case using the Fluo-4 dye, which has different fluorescence properties due to Ca^2+ ions).
First, a fresh culture of transformed HEK cells is prepared in cell culture flasks in the usual way. The HEK293-TRPM8 test cells are detached from the cell culture flasks using trypsin and 40,000 cells/well are seeded with 100 μl medium in 96-well plates (Greiner #655948 poly-D-lysine-coated). To induce the TRPM8 receptor, tetracycline is added to the growth medium (DMEM/HG, 10% FCS tetracycline-free, 4 mM L-glutamine, 15 μg/ml blasticidin, 100 μg/ml hygromycin B, 1 μg/ml tetracycline).
On the following day, the cells are loaded with Fluo-4AM dye and the test is performed. Proceed as follows: Addition of 100 μl/well staining solution Ca-4 kit (RB 141, Molecular Devices) to each 100 μl medium (DMEM/HG, 10% FCS tetracycline-free, 4 mM L-glutamine, 15 μg/ml blasticidin, 100 μg/ml hygromycin B, 1 μg/ml tetracycline).
Incubation in incubator, 30 minutes/37° C./5% CO2, 30 minutes/RT.
Preparation of the test substances (different concentrations in 200 μl HBSS buffer), as well as positive controls (different concentrations of menthol, icilin or lonomycin in 200 μl HBSS buffer) and negative controls (only 200 μl HBSS buffer) Addition of the test substances in quantities of 50 μl/well and measurement of the fluorescence change (e.g. in the assay device FLIPR, Molecular Devices or NovoStar, BMG) at 485 nm excitation, 520 nm emission, and evaluation of the potency of the different substances/concentrations and determination of the ECG. e.g. in the FLIPR assay device, Molecular Devices or NovoStar, BMG) at 485 nm excitation, 520 nm emission, and evaluation of the potency of the various substances/concentrations and determination of the EC50 values.
The test substances are used in triplicates in concentrations of 0.1-200 μM in the assay. Normally, the compounds are kept ready in DMSO solutions and diluted down to a maximum DMSO concentration of 2% for the assay.
The activity of the active substances in relation to activation of the TRPM8 channel is determined using the assay described. This is done in a concentration-dependent manner. For each active substance, 6 to 10 concentrations are measured as standard. A mathematical method (4-parameter or 5-parameter logistic curve fitting) can be used to determine the EC50 value as the inflection point of the sigmoidal curve from the activity values determined. These are standard biochemical methods that are familiar to experts.

[1] = TRPM8 activation, 6 to 10 concentrations, logistic curve fitting, read-out: EC50 value

T1 sequence (Q7Z2W7 whole entry): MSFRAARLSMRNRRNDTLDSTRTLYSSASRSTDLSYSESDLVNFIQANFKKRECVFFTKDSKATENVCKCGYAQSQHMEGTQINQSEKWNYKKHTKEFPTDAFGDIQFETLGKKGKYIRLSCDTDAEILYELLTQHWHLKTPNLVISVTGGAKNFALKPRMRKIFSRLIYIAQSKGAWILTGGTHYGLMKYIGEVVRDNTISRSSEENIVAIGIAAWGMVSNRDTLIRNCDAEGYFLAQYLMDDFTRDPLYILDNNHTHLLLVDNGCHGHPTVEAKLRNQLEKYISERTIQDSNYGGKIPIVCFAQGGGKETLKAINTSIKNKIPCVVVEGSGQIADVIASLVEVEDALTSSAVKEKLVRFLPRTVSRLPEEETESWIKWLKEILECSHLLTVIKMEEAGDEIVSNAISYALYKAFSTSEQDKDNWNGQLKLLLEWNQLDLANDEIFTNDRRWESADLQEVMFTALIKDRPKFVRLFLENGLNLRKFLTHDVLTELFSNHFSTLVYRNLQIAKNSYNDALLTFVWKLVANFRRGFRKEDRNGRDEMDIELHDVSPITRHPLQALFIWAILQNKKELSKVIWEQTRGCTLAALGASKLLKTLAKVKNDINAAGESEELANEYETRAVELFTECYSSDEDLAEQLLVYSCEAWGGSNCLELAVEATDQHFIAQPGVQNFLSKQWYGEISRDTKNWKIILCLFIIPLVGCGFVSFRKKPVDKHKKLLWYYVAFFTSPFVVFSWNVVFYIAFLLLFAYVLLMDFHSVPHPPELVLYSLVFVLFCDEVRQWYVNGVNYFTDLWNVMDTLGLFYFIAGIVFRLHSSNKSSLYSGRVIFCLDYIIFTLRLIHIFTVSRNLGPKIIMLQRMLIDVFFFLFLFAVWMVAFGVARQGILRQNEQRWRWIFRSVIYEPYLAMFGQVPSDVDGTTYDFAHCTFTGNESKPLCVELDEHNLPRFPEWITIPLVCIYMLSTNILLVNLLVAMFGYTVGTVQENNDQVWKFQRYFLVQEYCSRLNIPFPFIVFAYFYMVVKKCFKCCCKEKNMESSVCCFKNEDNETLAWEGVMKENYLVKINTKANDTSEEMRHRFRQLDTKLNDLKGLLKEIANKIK

CNC(=O)C(C)Sc1nc(-c2ccccc2)c(-c2ccccc2)o1 (stereo not shown) [Compound A-01, 3-carboxy-3,5-dihydroxy-5-OXO-pentanoate;2-(4,5-diphenyloxazol-2-yl)sulfanylpropa noyl-methyl-ammonium] showed an EC50 (Table 6, read-out: TRPM8 EC50) of 0.01 µM and an EC50 (Table 8, read-out: TRPM8 EC50) of 0.01 µM.
In the case of CNC(=O)C(C)Sc1nc(-c2ccccc2)c(-c2ccccc2)o1 (stereo not shown) [Compound A-03, 2-(4,5-diphenyloxazol-2-yl)sulfanylpropa noyl-methyl-ammonium; chloride], the EC50 [1] is reported as ≤ 1 µM, the EC50 (Table 6, read-out: TRPM8 EC50) is reported as 0.01 µM and the EC50 (Table 8, read-out: TRPM8 EC50) is reported as 0.01 µM.
O=C(CSc1nc(-c2ccccc2)c(-c2ccccc2)o1)NC1CC1 [Compound A-06, N-cyclopropyl-2-(4,5-diphenyloxazol-2-yl)sulfanyl-acetamide] was tested, and the EC50 [1] was ≤ 1 µM, the EC50 (Table 6, read-out: TRPM8 EC50) was 0.34 µM and the EC50 (Table 8, read-out: TRPM8 EC50) was 0.34 µM.
CSCC(=O)N1CCCCC1c1nc(-c2ccc(C)cc2)co1 (stereo not shown) [Compound A-08, 2-methylsulfanyl-1-[2-[4-(p-tolyl)oxazol-2-yl]-1-piperidyl] ethanone] was tested, and the EC50 [1] was ≤ 1 µM, the EC50 (Table 6, read-out: TRPM8 EC50) was 0.11 µM and the EC50 (Table 8, read-out: TRPM8 EC50) was 0.11 µM.
In the case of CNC(=O)CSc1nc(-c2ccccc2)c(-c2ccccc2)o1 [Compound A-15, 2-(4,5-diphenyloxazol-2-yl)sulfanyl-N-methyl-acetamide], the EC50 (Table 6, read-out: TRPM8 EC50) is reported as 7.14 µM and the EC50 (Table 8, read-out: TRPM8 EC50) is reported as 7.14 µM.
Work on CCNC(=O)CSc1nc(-c2ccccc2)c(-c2ccccc2)o1 [Compound A-17, 2-(4,5-diphenyloxazol-2-yl)sulfanyl-N-ethyl-acetamide] yielded an EC50 (Table 6, read-out: TRPM8 EC50) of 5.85 µM and an EC50 (Table 8, read-out: TRPM8 EC50) of 5.85 µM.
With CC(C)NC(=O)CSc1nc(-c2ccccc2)c(-c2ccccc2)o1 [Compound A-19, 2-(4,5-diphenyloxazol-2-yl)sulfanyl-N-isopropyl-acetamide] the “relative TRPM8 activation” value was 75%.
CSCC(=O)N1CCCCC1c1nc(-c2ccccc2)c(-c2ccccc2)o1 (stereo not shown) [Compound A-21, 1-[2-(4,5-diphenyloxazol-2-yl)-1-piperidyl]-2-methylsulfanyl-ethanone] was tested, and the “relative TRPM8 activation” value was 70%.
With CN(C)CCSc1nc(-c2ccccc2)c(-c2ccccc2)o1 [Compound A-23, 2-(4,5-diphenyloxazol-2-yl)sulfanyl-N,N-dimethyl-ethanamine] the “relative TRPM8 activation” value was 62%.
With CC(=O)NCCc1nc(-c2ccccc2)c(-c2ccccc2)o1 [Compound A-24, N-[2-(4,5-diphenyloxazol-2-yl)ethyl] acetamide] the “relative TRPM8 activation” value was 56%, the EC50 (Table 6, read-out: TRPM8 EC50) was 11.3 µM and the EC50 (Table 8, read-out: TRPM8 EC50) was 11.3 µM.
With CNC(=O)C(C)Sc1nc(-c2ccc(C)cc2)c(-c2ccc(C)cc2)o1 (stereo not shown) [Compound A-25, 2-[4,5-bis (p-tolyl)oxazol-2-yl]sulfanyl-N-methyl-propanamide] the “relative TRPM8 activation” value was 55%.
CC(CO)NC(=O)CSc1nc(-c2ccccc2)c(-c2ccccc2)o1 (stereo not shown) [Compound A-26, 2-(4,5-diphenyloxazol-2-yl)sulfanyl-N-(2-hydroxy-1-methyl-ethyl)acetamide] was tested, and the “relative TRPM8 activation” value was 51%.
With CN(C(=O)CSc1nc(-c2ccccc2)c(-c2ccccc2)o1)C1CC1 [Compound A-27, N-cyclopropyl-2-(4,5-diphenyloxazol-2-yl)sulfanyl-N-methyl-acetamide] the “relative TRPM8 activation” value was 42%, the EC50 (Table 6, read-out: TRPM8 EC50) was 18 µM and the EC50 (Table 8, read-out: TRPM8 EC50) was 18 µM.
With CNC(=O)C(C)S(=O)(=O)c1nc(-c2ccccc2)c(-c2ccccc2)o1 (stereo not shown) [Compound A-28, 2-(4,5-diphenyloxazol-2-yl)sulfonyl-N-methyl-propanamide] the “relative TRPM8 activation” value was 40%.
For CCN(CC)C(=O)CSc1nc(-c2ccccc2)c(-c2ccccc2)o1 [Compound A-29, 2-(4,5-diphenyloxazol-2-yl)sulfanyl-N,N-diethyl-acetamide], the “relative TRPM8 activation” value was 36%.
With CC(Sc1nc(-c2ccccc2)c(-c2ccccc2)o1)C(=O)NC1CCCC1 (stereo not shown) [Compound A-30, N-cyclopentyl-2-(4,5-diphenyloxazol-2-yl)sulfanyl-propanamide] the “relative TRPM8 activation” value was 26%.
With O=C(CCc1nc(-c2ccccc2)c(-c2ccccc2)o1)C1CC1 [Compound A-31, 1-cyclopropyl-3-(4,5-diphenyloxazol-2-yl)propan-1-one] the “relative TRPM8 activation” value was 24%.
With CNC(=O)CCc1nc(-c2ccc(C)cc2)c(-c2ccc(C)cc2)o1 [Compound A-32, 3-[4,5-bis (p-tolyl)oxazol-2-yl]-N-methyl-propanamide] the “relative TRPM8 activation” value was 23%.
CC(Sc1nc(-c2ccccc2)c(-c2ccccc2)o1)C(=O)NC(C)(C)C (stereo not shown) [Compound A-33, N-tert-butyl-2-(4,5-diphenyloxazol-2-yl) sulfanyl-propanamide] was tested, and the “relative TRPM8 activation” value was 21%.
For CN(C)C(=O)CCc1nc(-c2ccccc2)c(-c2ccccc2)o1 [Compound A-34, 3-(4,5-diphenyloxazol-2-yl)-N,N-dimethyl-propanamide], the “relative TRPM8 activation” value was 16%.
In the case of CNC(=O)/C=C/c1nc(-c2ccccc2)c(-c2ccccc2)o1 [Compound A-35, (E)-3-(4,5-diphenyloxazol-2-yl)-N-methyl-prop-2-enamide], the “relative TRPM8 activation” value is reported as 13%.
With CNC(=O)CCCc1nc(-c2ccccc2)c(-c2ccccc2)o1 [Compound A-36, 4-(4,5-diphenyloxazol-2-yl)-N-methyl-butanamide] the “relative TRPM8 activation” value was 12%.
With CC(C)CNC(=O)C(C)Sc1nc(-c2ccccc2)c(-c2ccccc2)o1 (stereo not shown) [Compound A-37, 2-(4,5-diphenyloxazol-2-yl)sulfanyl-N-isobutyl-propanamide] the “relative TRPM8 activation” value was 7%.
O=C(CSc1nc(-c2ccccc2)c(-c2ccccc2)o1)NC1CCCC1 [Compound A-38, N-cyclopentyl-2-(4,5-diphenyloxazol-2-yl)sulfanyl-acetamide] was tested, and the “relative TRPM8 activation” value was 6%.
In the case of CCC(=O)CCc1nc(-c2ccccc2)c(-c2ccccc2)o1 [Compound A-40, 1-(4,5-diphenyloxazol-2-yl)pentan-3-one], the “relative TRPM8 activation” value is reported as 5%.
With CC1CCCCC1NC(=O)CSc1nc(-c2ccccc2)c(-c2ccccc2)o1 (stereo not shown) [Compound A-42, 2-(4,5-diphenyloxazol-2-yl)sulfanyl-N-(2-methylcyclohexyl) acetamide] the “relative TRPM8 activation” value was 4%.
With O=C(CSc1nc(-c2ccccc2)c(-c2ccccc2)o1)NC1CCC1 [Compound A-43, N-cyclobutyl-2-(4,5-diphenyloxazol-2-yl)sulfanyl-acetamide] the “relative TRPM8 activation” value was 3%.
With c1ccc(-c2nc(C3CCCCN3)oc2-c2ccccc2)cc1 (stereo not shown) [Compound A-44, 4,5-diphenyl-2-(2-piperidyl)oxazole] the “relative TRPM8 activation” value was 3%.
CNC(=O)CCSc1ncco1 [Compound A-45, N-methyl-3-oxazol-2-ylsulfanyl-propanamide] was tested, and the “relative TRPM8 activation” value was 2%.
For CC(C)C(C)NC(=O)CSc1nc(-c2ccccc2)c(-c2ccccc2)o1 (stereo not shown) [Compound A-46, N-(1,2-dimethylpropyl)-2-(4,5-diphenyloxazol-2-yl)sulfanyl-acetamide], the “relative TRPM8 activation” value was 2%.
With CNC(=O)C(C)Sc1nc(-c2ccccc2)c(-c2ccccc2)[nH]1 (stereo not shown) [Compound A-47, 2-[(4,5-diphenyl-1H-imidazol-2-yl)sulfanyl]-N-methyl-propanamide] the “relative TRPM8 activation” value was 2%.
For CCC(=O)C(C)Sc1nc(-c2ccccc2)c(-c2ccccc2)o1 (stereo not shown) [Compound A-48, 2-(4,5-diphenyloxazol-2-yl) sulfanylpentan-3-one], the “relative TRPM8 activation” value was 2%.
In the case of CNC(=O)CCSc1nc(-c2ccccc2)c(-c2ccccc2)o1 [Compound A-49, 3-(4,5-diphenyloxazol-2-yl)sulfanyl-N-methyl-propanamide], the “relative TRPM8 activation” value is reported as 2%.
